Results as given in patent US3957978A, “Phosphonium anti-parasitics” (American Cyanamid Company, priority 1975, dated 1976).

Test system: Nematospiroides dubius
Test: Evaluation (Efficacy) Test in Mice, Nematospiroides dubius
Assay type: in vivo
Source text: The primary target parasite of this test is Nematospiroides dubius (Family: Heligmosomidae), which is phylogenetically related to certain economically important parasites of domestic and farm animals. Mice are orally inoculated with 20 to 30 infective N. dubius larvae. Mixed infections are obtained by subsequent inoculation with Aspicularis tetraptera and Hymenolepis nana. Eighteen days after inoculation the mice are divided into groups of four. Each group receives one compound at a specified dose rate, either as a single gavage dose or fed continually in the feed. Four groups of five mice each are utilized as infected, untreated controls. […] Those mice receiving single oral doses (SOD) or a single subcutaneous injection (Sc) of 5 mg./kg. to 100 mg./kg. of animal body weight of the compound under test are treated 22 days after inoculation. Eight days after start of treatment (drug diet) and 4 days post treatment (single dose SOD or Sc), the mice are necropsied, the worms recovered and counted. Percent efficacy for Nematospiroides is calculated using the formula: % Efficacy Equals [formula]
The diet used in the test procedures is a standard commercial mouse chow containing meat and bone meal, dried skimmed milk, wheat germ meal, fish meal, animal liver meal, dried beet pulp, ground extended corn, oat middlings, soybean meal, dehydrated alfalfa meal, cane molasses. animal fat preserved with BHA, vitamin B-12 supplement, calcium panthotenate, choline chloride, folic acid, riboflavin supplement, brewer's dried yeast, thiamine, niacin, vitamin A supplement, D activated plant sterol, vitamin E supplement, dicalcium phosphate, iodized salt, ferric ammonium citrate, iron oxide, manganous oxide, cobalt carbonate, copper oxide and zinc oxide; and the desired level of test compound.
When the drug is administered as a single oral dose, the drug is weighed and suspended in 0.2% agar, thoroughly mixed and orally introduced at the required volume.

C(=P(c1ccccc1)(c1ccccc1)c1ccccc1)[P+](c1ccccc1)(c1ccccc1)c1ccccc1 [Type II, R1 Phenyl, X not printed]
inhibition in vivo at 5 mg/kg (Heligmosomoides polygyrus, po, single oral dose, 5 mg/kg, dosage weight is that of the cation, read-out: % Efficacy N.d.): 49% | % Efficacy N.d. (drug diet, 0.006 % diet, 7 days): 85% | % Efficacy N.d. (drug diet, 0.0125 % diet, 7 days): 100% | % Efficacy N.d. (single oral dose, 10 mg/kg, dosage weight is that of the cation): 63% | % Efficacy N.d. (single oral dose, 25 mg/kg, dosage weight is that of the cation): 94%

c1ccc([P+](C[P+](c2ccccc2)(c2ccccc2)c2ccccc2)(c2ccccc2)c2ccccc2)cc1 [Type I, R1 Phenyl, X Cl, methylenebis triphenylphosphonium dichloride]
inhibition in vivo at 0.006 % (Heligmosomoides polygyrus, po, 168 h, drug diet, 0.006 % diet, 7 days, read-out: % Efficacy N.d.): 85% | inhibition in vivo at 0.0125 % (Heligmosomoides polygyrus, po, 168 h, drug diet, 0.0125 % diet, 7 days, read-out: % Efficacy N.d.): 100% | inhibition in vivo at 25 mg/kg (Heligmosomoides polygyrus, po, single oral dose, 25 mg/kg, read-out: % Efficacy N.d.): 96.5% | % Efficacy N.d. (single oral dose, 5 mg/kg): 85% | % Efficacy N.d. (single oral dose, 10 mg/kg): 84%
